In US9890133B2 (priority 2011, dated 2018):
In brackets after ≈: the same amount, converted by molar mass.

Test: in vitro
Details: human

Structure (SMILES)	CC50	CC50 (Picorana CC50)
CC(C)c1ccc2c(c1)OC1(O)c3ccccc3C(=O)C21NC(=O)[C@@H](C)NC(=O)OC(C)(C)C (stereo partly drawn) [Example 184, tert-Butyl(2R)-1-(4b-hydroxy-7-isopropyl-10-oxo-9b,10-dihydro-4bH-benzo[d]indeno[1,2-b]furan-9b-ylamino)-1-oxopropan-2-ylcarbamate]	> 10 µg/mL	36.4 µg/mL (≈ 78 µM)
CC(C)c1ccc2c(c1)OC1(O)c3ccccc3C(=O)C21NC(=O)[C@@H](Cc1ccccc1)NC(=O)OC(C)(C)C (stereo partly drawn) [Example 185, tert-Butyl(2R)-1-(4b-hydroxy-7-isopropyl-10-oxo-9b,10-dihydro-4bH-benzo[d]indeno[1,2-b]furan-9b-ylamino)-1-oxo-3-phenylpropan-2-ylcarbamate]	> 10 µg/mL	7.18 µg/mL (≈ 13.2 µM)
CC(C)c1ccc2c(c1)OC1(O)c3cccc(N)c3C(=O)C21NC(=O)c1c(Cl)cc(Cl)cc1Cl (stereo not shown) [Example 192, N-(1-Amino-4b-hydroxy-7-isopropyl-10-oxo-9b,10-dihydro-4bH-indeno[1,2-b]benzofuran-9b-yl)-2,4,6-trichlorobenzamide]	> 10 µg/mL	
CC(C)c1ccc2c(c1)OC1(O)c3cccc(N)c3C(=O)C21NC(=O)CCl (stereo not shown) [Example 194, N-(1-Amino-4b-hydroxy-7-isopropyl-10-oxo-9b,10-dihydro-4bH-benzo[d]indeno[1,2-b]furan-9b-yl)-2-chloroacetamide]	> 10 µg/mL	
CCCCc1cn(C23C(=O)c4c(N)cccc4C2(O)Oc2cc(C(C)C)ccc23)nn1 (stereo not shown) [Example 196, 1-amino-9b-(4-butyl-1H-1,2,3-triazol-1-yl)-4b-hydroxy-7-isopropyl-4bH-indeno[1,2-b]benzofuran-10(9bH)-one]	16.2 µg/mL (≈ 38.7 µM)	48.5 µg/mL (≈ 116 µM)
CC(C)c1ccc2c(c1)OC1(O)c3cccc(N)c3C(=O)C21NC(=O)c1cccc2cccnc12 (stereo not shown) [Example 202, N-(1-Amino-4b-hydroxy-7-isopropyl-10-oxo-9b,10-dihydro-4bH-indeno[1,2-b]benzofuran-9b-yl)quinoline-8-carboxamide]	3.24 µg/mL (≈ 6.96 µM)	9.6 µg/mL (≈ 20.6 µM)
CC(C)c1ccc2c(c1)OC1(O)c3ccccc3C(=O)C21NC(=O)c1cc2ccccc2[nH]1 (stereo not shown) [Example 208, N-(4b-hydroxy-7-isopropyl-10-oxo-9b,10-dihydro-4bH-indeno[1,2-b]benzofuran-9b-yl)-1H-indole-2-carboxamide]	> 10 µg/mL	
CC(C)c1ccc2c(c1)OC1(O)c3ccccc3C(=O)C21NC(=O)c1cnn(-c2ccccc2)c1C(F)(F)F (stereo not shown) [Example 211]	> 10 µg/mL	
Cc1ccc(C(=O)NC23C(=O)c4c(N)cccc4C2(O)Oc2cc(C(C)C)ccc23)s1 (stereo not shown) [Example 216, N-(1-Amino-4b-hydroxy-7-isopropyl-10-oxo-9b,10-dihydro-4bH-indeno[1,2-b]benzofuran-9b-yl)-5-methylthiophene-2-carboxamide]	9.69 µg/mL (≈ 22.3 µM)	4.75 µg/mL (≈ 10.9 µM)
CC(C)c1ccc2c(c1)OC1(O)c3ccccc3C(=O)C21NC(=O)c1ccccn1 (stereo not shown) [Example 218, N-(4b-Hydroxy-7-isopropyl-10-oxo-9b,10-dihydro-4bH-indeno[1,2-b]benzofuran-9b-yl)picolinamide]	> 10 µg/mL	8.49 µg/mL (≈ 21.2 µM)
CC(C)c1ccc2c(c1)OC1(O)c3ccccc3C(=O)C21NC(=O)c1ccncn1 (stereo not shown) [Example 219, N-(4b-Hydroxy-7-isopropyl-10-oxo-9b,10-dihydro-4bH-indeno[1,2-b]benzofuran-9b-yl)pyrimidine-4-carboxamide]	> 10 µg/mL	45.1 µg/mL (≈ 112 µM)
CC(C)c1ccc2c(c1)OC1(O)c3ccccc3C(=O)C21NC(=O)Cc1nnn[nH]1 (stereo not shown) [Example 220, N-(4b-Hydroxy-7-isopropyl-10-oxo-9b,10-dihydro-4bH-benzo[d]indeno[1,2-b]furan-9b-yl)-2-(1H-tetrazol-5-yl)acetamide]	> 10 µg/mL	> 50 µg/mL
CC(C)c1ccc2c(c1)OC1(O)c3ccccc3C(=O)C21NC(=O)c1nc[nH]n1 (stereo not shown) [Example 222, N-(4b-Hydroxy-7-isopropyl-10-oxo-9b,10-dihydro-4bH-benzo[d]indeno[1,2-b]furan-9b-yl)-1H-1,2,4-triazole-3-carboxamide]	> 10 µg/mL	39.4 µg/mL (≈ 101 µM)
CC(C)c1ccc2c(c1)OC1(O)c3ccccc3C(=O)C21NC(=O)c1cc(=O)[nH]c(=O)[nH]1 (stereo not shown) [Example 224, N-(4b-Hydroxy-7-isopropyl-10-oxo-9b,10-dihydro-4bH-benzo[d]indeno[1,2-b]furan-9b-yl)-2,6-dioxo-1,2,3,6-tetrahydropyrimidine-4-carboxamide]	> 10 µg/mL	> 50 µg/mL
CC(C)c1ccc2c(c1)OC1(O)c3ccccc3C(=O)C21NC(=O)c1cc2ccccc2oc1=O (stereo not shown) [Example 225, N-(4b-hydroxy-7-isopropyl-10-oxo-9b,10-dihydro-4bH-benzo[d]indeno[1,2-b]furan-9b-yl)-2-oxo-2H-chromene-3-carboxamide]	> 10 µg/mL	22.9 µg/mL (≈ 48.9 µM)
CC(C)c1ccc2c(c1)OC1(O)c3ccccc3C(=O)C21NC(=O)c1ccc(=O)oc1 (stereo not shown) [Example 226, N-(4b-Hydroxy-7-isopropyl-10-oxo-9b,10-dihydro-4bH-benzo[d]indeno[1,2-b]furan-9b-yl)-2-oxo-2H-pyrane-5-carboxamide]	> 10 µg/mL	28.2 µg/mL (≈ 67.5 µM)

Structure (SMILES)	CC50	CC50 (Picorana CC50)
CC(C)c1ccc2c(c1)OC1(O)c3ccccc3C(=O)C21NC(=O)c1nc2ccccc2[nH]1 (stereo not shown) [Example 227, N-(4b-hydroxy-7-isopropyl-10-oxo-9b,10-dihydro-4bH-benzo[d]indeno[1,2-b]furan-9b-yl)-1H-benzo[d]imidazole-2-carboxamide]	> 10 µg/mL	9.62 µg/mL (≈ 21.9 µM)
Cc1onc(-c2c(F)cccc2Cl)c1C(=O)NC12C(=O)c3c(N)cccc3C1(O)Oc1cc(C(C)C)ccc12 (stereo not shown) [Example 228, N-(1-Amino-4b-hydroxy-7-isopropyl-10-oxo-9b,10-dihydro-4bH-indeno[1,2-b]benzofuran-9b-yl)-3-(2-chloro-6-fluorophenyl)-5-methylisooxazole-4-carboxamide]	> 10 µg/mL	24.1 µg/mL (≈ 43.9 µM)
CC(C)c1ccc2c(c1)OC1(O)c3ccccc3C(=O)C21NC(=O)c1cc(-c2ccccc2)n[nH]1 (stereo not shown) [Example 229, N-(4b-hydroxy-7-isopropyl-10-oxo-9b,10-dihydro-4bH-indeno[1,2-b]benzofuran-9b-yl)-3-phenyl-1H-pyrazole-5-carboxamide]	4.51 µg/mL (≈ 9.69 µM)	8.63 µg/mL (≈ 18.5 µM)
CC(C)c1ccc2c(c1)OC1(O)c3ccccc3C(=O)C21NC(=O)c1cccnc1 (stereo not shown) [Example 230, N-(4b-Hydroxy-7-isopropyl-10-oxo-9b,10-dihydro-4bH-indeno[1,2-b]benzofuran-9b-yl)nicotinamide]	> 10 µg/mL	42.8 µg/mL (≈ 107 µM)
CC(C)c1ccc2c(c1)OC1(O)c3cccc(N)c3C(=O)C21NC(=O)c1ccc(N)o1 (stereo not shown) [Example 232, 5-amino-N-(1-amino-4b-hydroxy-7-isopropyl-10-oxo-9b,10-dihydro-4bH-indeno[1,2-b]benzofuran-9b-yl)furane-2-carboxamide]	> 10 µg/mL	> 50 µg/mL
Cc1onc(-c2c(Cl)cccc2Cl)c1C(=O)NC12C(=O)c3ccccc3C1(O)Oc1cc(C(C)C)ccc12 (stereo not shown) [Example 236, 3-(2,6-dichlorophenyl)-N-(4b-hydroxy-7-isopropyl-10-oxo-9b,10-dihydro-4bH-benzo[d]indeno[1,2-b]furan-9b-yl)-5-methylisooxazole-4-carboxamide]	> 10 µg/mL	21.4 µg/mL (≈ 38.9 µM)
CC(C)c1ccc2c(c1)OC1(O)c3cccc(N)c3C(=O)C21NC(=O)C1c2ccccc2Oc2ccccc21 (stereo not shown) [Example 237, N-(1-Amino-4b-hydroxy-7-isopropyl-10-oxo-9b,10-dihydro-4bH-benzo[d]indeno[1,2-b]furan-9b-yl)-9H-xanthene-9-carboxamide]	> 10 µg/mL	6.27 µg/mL (≈ 12.1 µM)
CC(C)c1ccc2c(c1)OC1(O)c3ccccc3C(=O)C21NC(=O)c1cnnc2ccccc12 (stereo not shown) [Example 239, N-(4b-hydroxy-7-isopropyl-10-oxo-9b,10-dihydro-4bH-benzo[d]indeno[1,2-b]furan-9b-yl)cinnoline-4-carboxamide]	> 10 µg/mL	> 50 µg/mL
CC(C)c1ccc2c(c1)OC1(O)c3cccc(N)c3C(=O)C21NC(=O)c1c2ccccc2nc2ccccc12 (stereo not shown) [Example 241, N-(1-Amino-4b-hydroxy-7-isopropyl-10-oxo-9b,10-dihydro-4bH-benzo[d]indeno[1,2-b]furan-9b-yl)acridine-9-carboxamide]	> 10 µg/mL	7.86 µg/mL (≈ 15.2 µM)
COc1cc(C(=O)NC23C(=O)c4c(N)cccc4C2(O)Oc2cc(C(C)C)ccc23)nc2ccccc12 (stereo not shown) [Example 247, N-(1-Amino-4b-hydroxy-7-isopropyl-10-oxo-9b,10-dihydro-4bH-benzo[d]indeno[1,2-b]furan-9b-yl)-4-methoxyquinoline-2-carboxamide]	> 10 µg/mL	20 µg/mL (≈ 40.4 µM)
CC(C)c1ccc2c(c1)OC1(O)c3cccc(N)c3C(=O)C21NC(=O)c1cnccc1Cl (stereo not shown) [Example 254, N-(1-Amino-4b-hydroxy-7-isopropyl-10-oxo-9b,10-dihydro-4bH-indeno[1,2-b]benzofuran-9b-yl)-4-chloronicotinamide]	> 10 µg/mL	
CC(C)c1ccc2c(c1)OC1(O)c3cccc(N)c3C(=O)C21NC(=O)c1sc2ccccc2c1Br (stereo not shown) [Example 264]	> 10 µg/mL	
COc1c(C(=O)NC23C(=O)c4c(N)cccc4C2(O)Oc2cc(C(C)C)ccc23)cnc2ccc(F)cc12 (stereo not shown) [Example 267, N-(1-Amino-4b-hydroxy-7-isopropyl-10-oxo-9b,10-dihydro-4bH-indeno[1,2-b]benzofuran-9b-yl)-6-fluoro-4-methoxyquinoline-3-carboxamide]	0.86 µg/mL (≈ 1.67 µM)	0.87 µg/mL (≈ 1.69 µM)
CC(C)c1ccc2c(c1)OC1(O)c3cccc(N)c3C(=O)C21NC(=O)c1sc2cc(F)ccc2c1Cl (stereo not shown) [Example 269, N-(1-Amino-4b-hydroxy-7-isopropyl-10-oxo-9b,10-dihydro-4bH-indeno[1,2-b]benzofuran-9b-yl)-3-chloro-6-fluorobenzo[b]thiophene-2-carboxamide]	> 10 µg/mL	
Cc1ccc2c(Cl)c(C(=O)NC34C(=O)c5c(N)cccc5C3(O)Oc3cc(C(C)C)ccc34)sc2c1 (stereo not shown) [Example 270, N-(1-Amino-4b-hydroxy-7-isopropyl-10-oxo-9b,10-dihydro-4bH-indeno[1,2-b]benzofuran-9b-yl)-3-chloro-6-methylbenzo[b]thiophene-2-carboxamide]	5.93 µg/mL (≈ 11.4 µM)	6.57 µg/mL (≈ 12.7 µM)
